Reference: ChEMBL document CHEMBL1130644, “Synthesis of C-ring aromatic taxoids and evaluation of their multi-drug resistance reversing activity” (1998)

Experiments:
Type in all cases: functional, Homo sapiens
[1] = Compound was evaluated for enhancing effect on vincristine accumulation in ovarian MDR cancer cells (2780AD) at concentration of 1.0 ug/mL.
[2] = Compound was evaluated for enhancing effect on vincristine accumulation in ovarian MDR cancer cells (2780AD) at concentration of 10 ug/mL.
[3] = 62 Compound was evaluated for enhancing effect on vincristine accumulation in ovarian MDR cancer cells (2780AD) at concentration of 1.0 ug/mL.

COc1cccc2c1[C@H](O)[C@]1(O)CC(=O)C(C)=C([C@@H](Sc3ccccc3)[C@@H]2OCCO)C1(C)C
Activity [1]: 112%
Activity [2]: 171%

COc1cccc2c1[C@H](OCc1ccccc1)[C@]1(O)CC(=O)C(C)=C([C@@H](Sc3ccccc3)[C@@H]2OCCOCc2ccccc2)C1(C)C
Activity [1]: 106%
Activity [2]: 211%

COc1cccc2c1[C@H](O)[C@]1(O)CC(=O)C(C)=C(C[C@@H]2OCCO)C1(C)C
Activity [1]: 111%
Activity [2]: 124%

CC1=C2[C@@H](Sc3ccccc3)[C@H](OCCOCc3ccccc3)c3cccc(O)c3[C@H](OCc3ccccc3)[C@](O)(CC1=O)C2(C)C
Activity [1]: 106%
Activity [2]: 142%

COc1cccc2c1[C@H](O)[C@]1(O)CC(=O)C(C)=C([C@@H](Sc3ccccc3)[C@@H]2OCCBr)C1(C)C
Activity [1]: 93%
Activity [2]: 166%

COc1cccc2c1[C@H](O)[C@]1(O)CC(O)C(C)=C([C@@H](Sc3ccccc3)[C@@H]2OCCO)C1(C)C (stereo partly specified)
Activity [3]: 109%
Activity [2]: 144%

CC1=C2[C@@H](Sc3ccccc3)[C@H](OCCO)c3cccc(O)c3[C@H](OCc3ccccc3)[C@](O)(CC1=O)C2(C)C
Activity [1]: 238%
Activity [2]: 569%

COc1cccc2c1[C@H](O)[C@]1(O)CC(=O)C(C)=C([C@@H](Sc3ccccc3)[C@@H]2OCCOCc2ccccc2)C1(C)C
Activity [1]: 140%
Activity [2]: 256%
